Experiment: Hydrogel degradation measured by swelling
Format: physicochemical
Conditions: pH 7.4
Procedure: Additionally, degradation was followed by measuring QM as a function of time. MS was measured at specific time points until gels lacked physical integrity. QM was calculated for each time point and normalized to the QM of the non-swollen network at time zero (MG/MD). Initial mesh size (ξ) and crosslink density (vc) were calculated via the Flory-[…] theory.

Degradation Time: 8.0 ± 0.5 days
Substance: PEG-dithiolpropionate [PEG-DD2]

From patent US12398255B2, “Biocompatible crosslinkers for controlled degradation of polymer hydrogels” (Saint Louis University, priority 2020, dated 2025)
